Patent US20230372498A1, “PLK1 SELECTIVE DEGRADATION INDUCING COMPOUND” (UPPTHERA, priority 2020, published 2023)

Target: T1, PLK1 (Homo sapiens, UniProt P53350)
T1 construct: endogenous in cells; host or cells: HeLa
Assay: PLK1 protein degradation in HeLa cells, Western blotting (PLK1/GAPDH ratio)
Format: cell-based
Details: 6 hours compound incubation; for DC50: measured only if the grade of Dmax is A or B; for Dmax: thymidine block and release, 10 points three-fold from 3 μM, PLK1 to GAPDH ratio, read-out: Dmax
In short: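 Thymidine-synchronised HeLa cells (2 mM, 24 h) released 4 h into complete medium, then treated 6 h with compound in 10-point 3-fold dilutions from 3 μM. RIPA lysates (15 μg protein) run on SDS-PAGE; PLK1 Western blot normalised to GAPDH.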

T1 sequence (P53350 whole entry): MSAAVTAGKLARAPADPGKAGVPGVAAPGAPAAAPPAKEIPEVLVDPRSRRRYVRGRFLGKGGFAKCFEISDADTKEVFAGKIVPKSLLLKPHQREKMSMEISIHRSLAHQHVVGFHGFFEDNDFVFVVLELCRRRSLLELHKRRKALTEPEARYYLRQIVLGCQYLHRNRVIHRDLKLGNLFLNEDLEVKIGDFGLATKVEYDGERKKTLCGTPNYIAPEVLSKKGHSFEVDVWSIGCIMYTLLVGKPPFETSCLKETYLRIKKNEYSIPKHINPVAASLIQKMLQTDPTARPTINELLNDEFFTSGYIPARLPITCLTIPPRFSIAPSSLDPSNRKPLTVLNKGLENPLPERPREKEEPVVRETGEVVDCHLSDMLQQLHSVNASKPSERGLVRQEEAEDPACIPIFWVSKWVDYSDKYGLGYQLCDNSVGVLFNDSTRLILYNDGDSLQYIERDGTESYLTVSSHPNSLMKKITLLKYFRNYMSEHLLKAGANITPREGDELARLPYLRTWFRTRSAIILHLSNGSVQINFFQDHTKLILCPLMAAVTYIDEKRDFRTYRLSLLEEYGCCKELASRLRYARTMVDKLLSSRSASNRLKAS

Structure (SMILES)	DC50	Dmax
COc1cc(C(=O)NC2CCN(CCCC(=O)Nc3cccc4c3C(=O)N(C3CCC(=O)NC3=O)C4=O)CC2)c(F)cc1Nc1ncc2c(n1)N(C1CCCC1)CC(F)(F)C(=O)N2C (stereo not drawn) [Compound 37, 4-((9-cyclopentyl-7,7-difluoro-5-methyl-6-oxo-6,7,8,9-tetrahydro-5H-pyrimido[4,5-b][1,4]diazepin-2-yl)amino)-N-(1-(4-((2-(2,6-dioxopiperidin-3-yl)-1,3-dioxoisoindolin-4-yl)amino)-4-oxobutyl)piperidin-4-yl)-2-fluoro-5-methoxybenzamide]	≤ 500 nM	60 to 80%
COc1cc(C(=O)NC2CCN(CCCCCCCC(=O)Nc3cccc4c3C(=O)N(C3CCC(=O)NC3=O)C4=O)CC2)c(F)cc1Nc1ncc2c(n1)N(C1CCCC1)CC(F)(F)C(=O)N2C (stereo not drawn) [Compound 38, 4-((9-cyclopentyl-7,7-difluoro-5-methyl-6-oxo-6,7,8,9-tetrahydro-5H-pyrimido[4,5-b][1,4]diazepin-2-yl)amino)-N-(1-(8-((2-(2,6-dioxopiperidin-3-yl)-1,3-dioxoisoindolin-4-yl)amino)-8-oxooctyl)piperidin-4-yl)-2-fluoro-5-methoxybenzamide]	≤ 500 nM	60 to 80%
COc1cc(C(=O)NC2CCN(Cc3ccc(OCCNc4cccc5c4C(=O)N(C4CCC(=O)NC4=O)C5=O)cc3)CC2)c(F)cc1Nc1ncc2c(n1)N(C1CCCC1)CC(F)(F)C(=O)N2C (stereo not drawn) [Compound 40, 4-((9-cyclopentyl-7,7-difluoro-5-methyl-6-oxo-6,7,8,9-tetrahydro-5H-pyrimido[4,5-b][1,4]diazepin-2-yl)amino)-N-(1-(4-(2-((2-(2,6-dioxopiperidin-3-yl)-1,3-dioxoisoindolin-4-yl)amino)ethoxy)benzyl)piperidin-4-yl)-2-fluoro-5-methoxybenzamide]	≤ 500 nM	60 to 80%
COc1cc(C(=O)NC2CCN(Cc3ccc(OCCOCCOCCNc4cccc5c4C(=O)N(C4CCC(=O)NC4=O)C5=O)cc3)CC2)c(F)cc1Nc1ncc2c(n1)N(C1CCCC1)CC(F)(F)C(=O)N2C (stereo not drawn) [Compound 41, 4-((9-cyclopentyl-7,7-difluoro-5-methyl-6-oxo-6,7,8,9-tetrahydro-5H-pyrimido[4,5-b][1,4]diazepin-2-yl)amino)-N-(1-(4-(2-(2-(2-((2-(2,6-dioxopiperidin-3-yl)-1,3-dioxoisoindolin-4-yl)amino)ethoxy)ethoxy)ethoxy)benzyl)piperidin-4-yl)-2-fluoro-5-methoxybenzamide]	≤ 50 nM	≥ 80%
COc1cc(C(=O)NC2CCN(CCc3ccc(CC(=O)Nc4cccc5c4C(=O)N(C4CCC(=O)NC4=O)C5=O)cc3)CC2)c(F)cc1Nc1ncc2c(n1)N(C1CCCC1)CC(F)(F)C(=O)N2C (stereo not drawn) [Compound 42, 4-((9-cyclopentyl-7,7-difluoro-5-methyl-6-oxo-6,7,8,9-tetrahydro-5H-pyrimido[4,5-b][1,4]diazepin-2-yl)amino)-N-(1-(4-(2-((2-(2,6-dioxopiperidin-3-yl)-1,3-dioxoisoindolin-4-yl)amino)-2-oxoethyl)phenethyl)piperidin-4-yl)-2-fluoro-5-methoxybenzamide]	> 500 nM	60 to 80%
COc1cc(C(=O)NC2CCN(CCCn3cnc(CNc4cccc5c4C(=O)N(C4CCC(=O)NC4=O)C5=O)c3)CC2)c(F)cc1Nc1ncc2c(n1)N(C1CCCC1)CC(F)(F)C(=O)N2C (stereo not drawn) [Compound 43]	≤ 50 nM	≥ 80%
COc1cc(C(=O)NC2CCN(Cc3cn(CCOCCNc4cccc5c4C(=O)N(C4CCC(=O)NC4=O)C5=O)nn3)CC2)c(F)cc1Nc1ncc2c(n1)N(C1CCCC1)CC(F)(F)C(=O)N2C (stereo not drawn) [Compound 44, 4-((9-cyclopentyl-7,7-difluoro-5-methyl-6-oxo-6,7,8,9-tetrahydro-5H-pyrimido[4,5-b][1,4]diazepin-2-yl)amino)-N-(1-((1-(2-(2-((2-(2,6-dioxopiperidin-3-yl)-1,3-dioxoisoindolin-4-yl)amino)ethoxy)ethyl)-1H-1,2,3-triazol-4-yl)methyl)piperidin-4-yl)-2-fluoro-5-methoxybenzamide]	≤ 50 nM	≥ 80%
COc1cc(C(=O)NC2CCN(Cc3cn(CCOCCOCCOCCNc4cccc5c4C(=O)N(C4CCC(=O)NC4=O)C5=O)nn3)CC2)c(F)cc1Nc1ncc2c(n1)N(C1CCCC1)CC(F)(F)C(=O)N2C (stereo not drawn) [Compound 45, 4-((9-cyclopentyl-7,7-difluoro-5-methyl-6-oxo-6,7,8,9-tetrahydro-5H-pyrimido[4,5-b][1,4]diazepin-2-yl)amino)-N-(1-((1-(2-(2-(2-(2-((2-(2,6-dioxopiperidin-3-yl)-1,3-dioxoisoindolin-4-yl)amino)ethoxy)ethoxy)ethoxy)ethyl)-1H-1,2,3-triazol-4-yl)methyl)piperidin-4-yl)-2-fluoro-5-methoxybenzamide]	≤ 50 nM	≥ 80%
COc1cc(C(=O)NC2CCN(Cc3cn(CCCC(=O)Nc4cccc5c4C(=O)N(C4CCC(=O)NC4=O)C5=O)nn3)CC2)c(F)cc1Nc1ncc2c(n1)N(C1CCCC1)CC(F)(F)C(=O)N2C (stereo not drawn) [Compound 46, 4-((9-cyclopentyl-7,7-difluoro-5-methyl-6-oxo-6,7,8,9-tetrahydro-5H-pyrimido[4,5-b][1,4]diazepin-2-yl)amino)-N-(1-((1-(4-((2-(2,6-dioxopiperidin-3-yl)-1,3-dioxoisoindolin-4-yl)amino)-4-oxobutyl)-1H-1,2,3-triazol-4-yl)methyl)piperidin-4-yl)-2-fluoro-5-methoxybenzamide]		< 60%
COc1cc(C(=O)NC2CCN(Cc3cn(CCNC(=O)CNc4cccc5c4C(=O)N(C4CCC(=O)NC4=O)C5=O)nn3)CC2)c(F)cc1Nc1ncc2c(n1)N(C1CCCC1)CC(F)(F)C(=O)N2C (stereo not drawn) [Compound 47, 4-((9-cyclopentyl-7,7-difluoro-5-methyl-6-oxo-6,7,8,9-tetrahydro-5H-pyrimido[4,5-b][1,4]diazepin-2-yl)amino)-N-(1-((1-(2-(2-((2-(2,6-dioxopiperidin-3-yl)-1,3-dioxoisoindolin-4-yl)amino)acetamido)ethyl)-1H-1,2,3-triazol-4-yl)methyl)piperidin-4-yl)-2-fluoro-5-methoxybenzamide]		< 60%

The remaining lines, values ahead:

DC50	Dmax	Structure (SMILES)
≤ 50 nM	≥ 80%	COc1cc(C(=O)NC2CCN(C(=O)CCOCCNc3cccc4c3C(=O)N(C3CCC(=O)NC3=O)C4=O)CC2)c(F)cc1Nc1ncc2c(n1)N(C1CCCC1)CC(F)(F)C(=O)N2C (stereo not drawn) [Compound 32, 4-((9-cyclopentyl-7,7-difluoro-5-methyl-6-oxo-6,7,8,9-tetrahydro-5H-pyrimido[4,5-b][1,4]diazepin-2-yl)amino)-N-(1-(3-(2-((2-(2,6-dioxopiperidin-3-yl)-1,3-dioxoisoindolin-4-yl)amino)ethoxy)propanoyl)piperidin-4-yl)-2-fluoro-5-methoxybenzamide]
≤ 50 nM	≥ 80%	COc1cc(C(=O)NC2CCN(C(=O)COCCOCCNc3cccc4c3C(=O)N(C3CCC(=O)NC3=O)C4=O)CC2)c(F)cc1Nc1ncc2c(n1)N(C1CCCC1)CC(F)(F)C(=O)N2C (stereo not drawn) [Compound 33, 4-((9-cyclopentyl-7,7-difluoro-5-methyl-6-oxo-6,7,8,9-tetrahydro-5H-pyrimido[4,5-b][1,4]diazepin-2-yl)amino)-N-(1-(2-(2-(2-((2-(2,6-dioxopiperidin-3-yl)-1,3-dioxoisoindolin-4-yl)amino)ethoxy)ethoxy)acetyl)piperidin-4-yl)-2-fluoro-5-methoxybenzamide]
≤ 50 nM	≥ 80%	COc1cc(C(=O)NC2CCN(C(=O)COCCOCCOCCOCCNc3cccc4c3C(=O)N(C3CCC(=O)NC3=O)C4=O)CC2)c(F)cc1Nc1ncc2c(n1)N(C1CCCC1)CC(F)(F)C(=O)N2C (stereo not drawn) [Compound 34, 4-((9-cyclopentyl-7,7-difluoro-5-methyl-6-oxo-6,7,8,9-tetrahydro-5H-pyrimido[4,5-b][1,4]diazepin-2-yl)amino)-N-(1-(14-((2-(2,6-dioxopiperidin-3-yl)-1,3-dioxoisoindolin-4-yl)amino)-3,6,9,12-tetraoxatetradecanoyl)piperidin-4-yl)-2-fluoro-5-methoxybenzamide]
≤ 50 nM	≥ 80%	COc1cc(C(=O)NC2CCN(CC(=O)NCCOCCNc3cccc4c3C(=O)N(C3CCC(=O)NC3=O)C4=O)CC2)c(F)cc1Nc1ncc2c(n1)N(C1CCCC1)CC(F)(F)C(=O)N2C (stereo not drawn) [Compound 35, 4-((9-cyclopentyl-7,7-difluoro-5-methyl-6-oxo-6,7,8,9-tetrahydro-5H-pyrimido[4,5-b][1,4]diazepin-2-yl)amino)-N-(1-(2-((2-(2-((2-(2,6-dioxopiperidin-3-yl)-1,3-dioxoisoindolin-4-yl)amino)ethoxy)ethyl)amino)-2-oxoethyl)piperidin-4-yl)-2-fluoro-5-methoxybenzamide]
≤ 50 nM	≥ 80%	COc1cc(C(=O)NC2CCN(CC(=O)NCCOCCOCCOCCNc3cccc4c3C(=O)N(C3CCC(=O)NC3=O)C4=O)CC2)c(F)cc1Nc1ncc2c(n1)N(C1CCCC1)CC(F)(F)C(=O)N2C (stereo not drawn) [Compound 36, 4-((9-cyclopentyl-7,7-difluoro-5-methyl-6-oxo-6,7,8,9-tetrahydro-5H-pyrimido[4,5-b][1,4]diazepin-2-yl)amino)-N-(1-(14-((2-(2,6-dioxopiperidin-3-yl)-1,3-dioxoisoindolin-4-yl)amino)-2-oxo-6,9,12-trioxa-3-azatetradecyl)piperidin-4-yl)-2-fluoro-5-methoxybenzamide]
≤ 50 nM	≥ 80%	COc1cc(C(=O)NC2CCN(C(=O)CCCNc3cccc4c3C(=O)N(C3CCC(=O)NC3=O)C4=O)CC2)c(F)cc1Nc1ncc2c(n1)N(C1CCCC1)CC(F)(F)C(=O)N2C (stereo not drawn) [Compound 39, 4-((9-cyclopentyl-7,7-difluoro-5-methyl-6-oxo-6,7,8,9-tetrahydro-5H-pyrimido[4,5-b][1,4]diazepin-2-yl)amino)-N-(1-(4-((2-(2,6-dioxopiperidin-3-yl)-1,3-dioxoisoindolin-4-yl)amino)butanoyl)piperidin-4-yl)-2-fluoro-5-methoxybenzamide]
